Measured values published in ChEMBL document CHEMBL4049403, “Oligo-aspartic acid conjugates with benzo[c][2,6]naphthyridine-8-carboxylic acid scaffold as picomolar inhibitors of CK2” (Bioorg Med Chem, 2017).
Where a SMILES comes first, the peptide text is derived from it. The star is where a group is joined. X1 = O=C(O)c1ccc2c(c1)nc(OCCCCCCCCC(=O)*)c1ccncc12

Legend:
[1] = molecular target: Eukaryotic translation initiation factor 2-alpha kinase 3 (Homo sapiens) (UniProt Q9NZJ5); assay: Inhibition of human EIF2AK3 assessed as residual activity at 1 uM in presence of 33P-ATP by filter-binding assay relative to control
[2] = molecular target: Dual specificity mitogen-activated protein kinase kinase 6 (Homo sapiens) (UniProt P52564); assay: Inhibition of human MKK6 assessed as residual activity at 1 uM in presence of [33P]ATP by filter binding assay relative to control
[3] = molecular target: Mitogen-activated protein kinase kinase kinase 11 (Homo sapiens) (UniProt Q16584); assay: Inhibition of human MLK3 assessed as residual activity at 1 uM in presence of 33P-ATP by filter-binding assay relative to control
[4] = molecular target: Mitogen-activated protein kinase kinase kinase 1 (Homo sapiens) (UniProt Q13233); assay: Inhibition of human MEKK1 assessed as residual activity at 1 uM in presence of [33P]ATP by filter binding assay relative to control
[5] = molecular target: Casein kinase II subunit alpha (Homo sapiens, UniProt P68400); assay: Inhibition of ARC-1504 binding to CK2alpha (unknown origin) (1 to 335 residues) measured after 15 mins by fluorescence anisotropic method
[6] = molecular target: Eukaryotic elongation factor 2 kinase (Homo sapiens) (UniProt O00418); assay: Inhibition of human EF2K assessed as residual activity at 1 uM in presence of [33P]ATP by filter binding assay relative to control
[7] = molecular target: MAP/microtubule affinity-regulating kinase 4 (Homo sapiens) (UniProt Q96L34); assay: Inhibition of human MARK4 assessed as residual activity at 1 uM in presence of [33P]ATP by filter binding assay relative to control
[8] = molecular target: RAC-alpha serine/threonine-protein kinase (Homo sapiens) (UniProt P31749); assay: Inhibition of human PKBa assessed as residual activity at 1 uM in presence of [33P]ATP by filter binding assay relative to control
[9] = molecular target: Angiopoietin-1 receptor (Homo sapiens) (UniProt Q02763); assay: Inhibition of human TIE2 assessed as residual activity at 1 uM in presence of 33P-ATP by filter-binding assay relative to control
[10] = molecular target: Serine/threonine-protein kinase MARK2 (Homo sapiens) (UniProt Q7KZI7); assay: Inhibition of human MARK2 assessed as residual activity at 1 uM in presence of [33P]ATP by filter binding assay relative to control
[11] = molecular target: 3-phosphoinositide-dependent protein kinase 1 (Homo sapiens) (UniProt O15530); assay: Inhibition of human PDK1 assessed as residual activity at 1 uM in presence of [33P]ATP by filter binding assay relative to control
[12] = molecular target: Tyrosine-protein kinase CSK (Homo sapiens) (UniProt P41240); assay: Inhibition of human CSK assessed as residual activity at 1 uM in presence of [33P]ATP by filter binding assay relative to control
[13] = molecular target: Ephrin type-B receptor 4 (Homo sapiens) (UniProt P54760); assay: Inhibition of human EPHB4 assessed as residual activity at 1 uM in presence of [33P]ATP by filter binding assay relative to control
[14] = molecular target: Interleukin-1 receptor-associated kinase 1 (Homo sapiens) (UniProt P51617); assay: Inhibition of human IRAK1 assessed as residual activity at 1 uM in presence of [33P]ATP by filter binding assay relative to control
[15] = molecular target: Mitogen-activated protein kinase 13 (Homo sapiens) (UniProt O15264); assay: Inhibition of human P38d MAPK assessed as residual activity at 1 uM in presence of [33P]ATP by filter binding assay relative to control
[16] = molecular target: Testis-specific serine/threonine-protein kinase 1 (Homo sapiens) (UniProt Q9BXA7); assay: Inhibition of human TSSK1 assessed as residual activity at 1 uM in presence of [33P]ATP by filter binding assay relative to control
[17] = molecular target: Casein kinase I isoform gamma-2 (Homo sapiens) (UniProt P78368); assay: Inhibition of human CK1gamma2 assessed as residual activity at 1 uM in presence of [33P]ATP by filter binding assay relative to control
[18] = molecular target: Ephrin type-A receptor 2 (Homo sapiens) (UniProt P29317); assay: Inhibition of human EPHA2 assessed as residual activity at 1 uM in presence of [33P]ATP by filter binding assay relative to control
[19] = molecular target: Dual specificity protein kinase TTK (Homo sapiens) (UniProt P33981); assay: Inhibition of human TTK assessed as residual activity at 1 uM in presence of 33P-ATP by filter-binding assay relative to control
[20] = molecular target: Serine/threonine-protein kinase D1 (Homo sapiens) (UniProt Q15139); assay: Inhibition of human PKD1 assessed as residual activity at 1 uM in presence of [33P]ATP by filter binding assay relative to control
[21] = molecular target: Mitogen-activated protein kinase 10 (Homo sapiens) (UniProt P53779); assay: Inhibition of human JNK3 assessed as residual activity at 1 uM in presence of [33P]ATP by filter binding assay relative to control
[22] = molecular target: NUAK family SNF1-like kinase 1 (Homo sapiens) (UniProt O60285); assay: Inhibition of human NUAK1 assessed as residual activity at 1 uM in presence of [33P]ATP by filter binding assay relative to control
[23] = molecular target: MAP/microtubule affinity-regulating kinase 3 (Homo sapiens) (UniProt P27448); assay: Inhibition of human MARK3 assessed as residual activity at 1 uM in presence of [33P]ATP by filter binding assay relative to control
[24] = molecular target: Misshapen-like kinase 1 (Homo sapiens) (UniProt Q8N4C8); assay: Inhibition of human MINK1 assessed as residual activity at 1 uM in presence of [33P]ATP by filter binding assay relative to control
Misshapen-like kinase 1 (Homo sapiens), sequence (Q8N4C8 whole entry, looked up): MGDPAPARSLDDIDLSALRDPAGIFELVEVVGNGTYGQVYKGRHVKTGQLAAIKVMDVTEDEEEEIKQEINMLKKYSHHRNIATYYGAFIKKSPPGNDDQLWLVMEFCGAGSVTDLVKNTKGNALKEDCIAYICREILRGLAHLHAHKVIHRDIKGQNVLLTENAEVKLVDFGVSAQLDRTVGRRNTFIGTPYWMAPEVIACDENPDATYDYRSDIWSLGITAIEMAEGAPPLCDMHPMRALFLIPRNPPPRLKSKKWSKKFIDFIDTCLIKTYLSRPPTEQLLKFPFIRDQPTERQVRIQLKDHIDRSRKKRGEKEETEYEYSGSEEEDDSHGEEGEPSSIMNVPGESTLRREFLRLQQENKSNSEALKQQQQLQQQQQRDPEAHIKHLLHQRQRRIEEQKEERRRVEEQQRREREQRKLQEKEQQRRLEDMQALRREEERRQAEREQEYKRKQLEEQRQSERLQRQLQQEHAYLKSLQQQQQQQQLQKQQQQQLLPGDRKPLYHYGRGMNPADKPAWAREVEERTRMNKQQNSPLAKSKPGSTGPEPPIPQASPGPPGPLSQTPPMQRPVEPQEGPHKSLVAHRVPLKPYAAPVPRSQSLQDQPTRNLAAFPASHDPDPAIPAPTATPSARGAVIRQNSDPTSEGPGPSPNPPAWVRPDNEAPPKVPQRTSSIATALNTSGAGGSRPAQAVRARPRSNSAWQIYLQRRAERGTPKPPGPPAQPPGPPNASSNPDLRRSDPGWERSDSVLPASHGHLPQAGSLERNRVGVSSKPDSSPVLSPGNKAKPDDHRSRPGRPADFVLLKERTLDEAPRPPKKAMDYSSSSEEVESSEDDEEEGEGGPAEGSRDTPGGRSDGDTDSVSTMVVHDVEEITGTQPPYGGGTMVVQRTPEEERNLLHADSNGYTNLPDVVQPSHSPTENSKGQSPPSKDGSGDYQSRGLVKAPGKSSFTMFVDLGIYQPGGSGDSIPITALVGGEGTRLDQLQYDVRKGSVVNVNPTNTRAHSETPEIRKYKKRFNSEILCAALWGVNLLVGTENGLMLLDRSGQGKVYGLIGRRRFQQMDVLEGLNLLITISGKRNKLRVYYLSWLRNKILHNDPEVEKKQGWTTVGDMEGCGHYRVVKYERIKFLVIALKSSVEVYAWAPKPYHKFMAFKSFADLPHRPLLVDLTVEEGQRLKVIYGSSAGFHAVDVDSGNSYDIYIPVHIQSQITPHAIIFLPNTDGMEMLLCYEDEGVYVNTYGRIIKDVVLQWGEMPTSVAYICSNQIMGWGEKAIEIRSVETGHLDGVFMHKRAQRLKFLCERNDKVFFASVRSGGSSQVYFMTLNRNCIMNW

Casein kinase II subunit alpha, sequence (P68400 whole entry, the tested form may be a part): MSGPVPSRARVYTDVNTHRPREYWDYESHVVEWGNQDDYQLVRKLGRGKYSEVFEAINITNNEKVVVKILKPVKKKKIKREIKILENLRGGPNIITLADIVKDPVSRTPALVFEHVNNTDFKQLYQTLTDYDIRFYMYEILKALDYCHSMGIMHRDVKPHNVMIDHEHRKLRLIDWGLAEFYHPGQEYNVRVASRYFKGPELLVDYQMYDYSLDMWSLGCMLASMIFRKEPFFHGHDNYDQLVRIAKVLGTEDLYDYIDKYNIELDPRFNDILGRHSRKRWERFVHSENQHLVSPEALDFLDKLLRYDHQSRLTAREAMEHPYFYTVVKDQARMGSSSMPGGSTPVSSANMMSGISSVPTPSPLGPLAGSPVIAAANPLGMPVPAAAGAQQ
Dual specificity mitogen-activated protein kinase kinase 6 (Homo sapiens), sequence (P52564 whole entry): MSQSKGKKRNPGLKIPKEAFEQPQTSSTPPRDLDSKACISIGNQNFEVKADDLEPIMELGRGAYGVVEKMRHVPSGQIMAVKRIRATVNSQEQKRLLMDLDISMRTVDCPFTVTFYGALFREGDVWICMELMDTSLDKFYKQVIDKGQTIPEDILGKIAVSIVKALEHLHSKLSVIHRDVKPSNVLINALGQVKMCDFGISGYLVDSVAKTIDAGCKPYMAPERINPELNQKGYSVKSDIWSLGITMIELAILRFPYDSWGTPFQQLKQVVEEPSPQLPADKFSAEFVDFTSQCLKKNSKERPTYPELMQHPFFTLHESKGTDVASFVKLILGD
RAC-alpha serine/threonine-protein kinase (Homo sapiens), sequence (P31749 whole entry): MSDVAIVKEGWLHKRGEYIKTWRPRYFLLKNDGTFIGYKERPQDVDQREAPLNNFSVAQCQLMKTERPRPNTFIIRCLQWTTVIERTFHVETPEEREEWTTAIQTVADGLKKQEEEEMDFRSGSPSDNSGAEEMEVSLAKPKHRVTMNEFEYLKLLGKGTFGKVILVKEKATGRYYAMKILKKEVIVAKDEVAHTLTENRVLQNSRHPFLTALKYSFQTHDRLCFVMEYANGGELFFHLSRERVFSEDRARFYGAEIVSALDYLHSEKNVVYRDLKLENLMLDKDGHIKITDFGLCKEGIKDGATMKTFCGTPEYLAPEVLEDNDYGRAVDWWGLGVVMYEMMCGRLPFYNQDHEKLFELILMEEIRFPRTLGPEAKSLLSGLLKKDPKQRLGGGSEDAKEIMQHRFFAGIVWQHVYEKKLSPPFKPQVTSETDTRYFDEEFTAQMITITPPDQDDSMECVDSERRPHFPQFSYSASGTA
3-phosphoinositide-dependent protein kinase 1 (Homo sapiens), sequence (O15530 whole entry): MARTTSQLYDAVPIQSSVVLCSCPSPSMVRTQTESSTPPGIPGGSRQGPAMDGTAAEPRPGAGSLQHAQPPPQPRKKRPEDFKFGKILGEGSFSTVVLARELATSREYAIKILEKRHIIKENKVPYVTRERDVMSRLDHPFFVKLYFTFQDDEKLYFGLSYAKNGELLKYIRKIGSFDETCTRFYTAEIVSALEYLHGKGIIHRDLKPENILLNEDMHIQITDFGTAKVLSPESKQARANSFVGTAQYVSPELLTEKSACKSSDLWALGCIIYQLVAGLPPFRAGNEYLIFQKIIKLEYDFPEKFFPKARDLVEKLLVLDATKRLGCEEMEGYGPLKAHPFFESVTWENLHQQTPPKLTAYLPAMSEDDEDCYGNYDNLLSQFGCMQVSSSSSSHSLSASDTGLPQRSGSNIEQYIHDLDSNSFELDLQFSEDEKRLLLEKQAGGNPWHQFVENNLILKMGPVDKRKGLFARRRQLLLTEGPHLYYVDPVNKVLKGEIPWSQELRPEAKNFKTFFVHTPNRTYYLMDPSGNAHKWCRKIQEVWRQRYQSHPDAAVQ
NUAK family SNF1-like kinase 1 (Homo sapiens), sequence (O60285 whole entry): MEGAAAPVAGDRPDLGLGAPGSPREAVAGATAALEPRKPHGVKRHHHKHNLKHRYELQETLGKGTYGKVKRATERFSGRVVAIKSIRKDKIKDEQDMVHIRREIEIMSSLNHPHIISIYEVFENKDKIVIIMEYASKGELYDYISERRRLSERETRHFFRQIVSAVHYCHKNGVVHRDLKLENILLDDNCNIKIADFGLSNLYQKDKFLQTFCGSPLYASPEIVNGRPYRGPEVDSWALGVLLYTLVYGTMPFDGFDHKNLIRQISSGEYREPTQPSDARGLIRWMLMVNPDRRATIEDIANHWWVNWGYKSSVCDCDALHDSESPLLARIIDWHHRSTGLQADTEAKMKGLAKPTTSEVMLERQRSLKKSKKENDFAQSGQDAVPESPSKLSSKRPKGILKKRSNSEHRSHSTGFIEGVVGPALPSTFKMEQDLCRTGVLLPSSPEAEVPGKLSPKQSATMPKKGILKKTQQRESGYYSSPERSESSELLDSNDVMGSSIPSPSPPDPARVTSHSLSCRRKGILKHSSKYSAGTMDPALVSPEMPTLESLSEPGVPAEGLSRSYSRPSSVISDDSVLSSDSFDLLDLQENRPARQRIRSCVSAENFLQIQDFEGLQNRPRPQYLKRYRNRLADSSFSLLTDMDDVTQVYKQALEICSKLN
Tyrosine-protein kinase CSK (Homo sapiens), sequence (P41240 2-450 limits assumed): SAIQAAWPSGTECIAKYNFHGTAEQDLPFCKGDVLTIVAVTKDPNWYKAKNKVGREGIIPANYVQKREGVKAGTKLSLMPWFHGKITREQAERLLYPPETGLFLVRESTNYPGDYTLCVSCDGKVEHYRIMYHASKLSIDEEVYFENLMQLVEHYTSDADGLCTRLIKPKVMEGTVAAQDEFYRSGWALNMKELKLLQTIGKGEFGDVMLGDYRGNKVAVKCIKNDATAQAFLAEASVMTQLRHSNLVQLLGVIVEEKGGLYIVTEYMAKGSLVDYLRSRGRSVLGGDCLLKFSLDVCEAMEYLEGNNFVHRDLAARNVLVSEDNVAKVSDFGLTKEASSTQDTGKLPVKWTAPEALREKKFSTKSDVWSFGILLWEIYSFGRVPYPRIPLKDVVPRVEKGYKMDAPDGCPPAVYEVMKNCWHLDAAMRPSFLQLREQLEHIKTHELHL
Mitogen-activated protein kinase 10 (Homo sapiens), sequence (P53779 whole entry): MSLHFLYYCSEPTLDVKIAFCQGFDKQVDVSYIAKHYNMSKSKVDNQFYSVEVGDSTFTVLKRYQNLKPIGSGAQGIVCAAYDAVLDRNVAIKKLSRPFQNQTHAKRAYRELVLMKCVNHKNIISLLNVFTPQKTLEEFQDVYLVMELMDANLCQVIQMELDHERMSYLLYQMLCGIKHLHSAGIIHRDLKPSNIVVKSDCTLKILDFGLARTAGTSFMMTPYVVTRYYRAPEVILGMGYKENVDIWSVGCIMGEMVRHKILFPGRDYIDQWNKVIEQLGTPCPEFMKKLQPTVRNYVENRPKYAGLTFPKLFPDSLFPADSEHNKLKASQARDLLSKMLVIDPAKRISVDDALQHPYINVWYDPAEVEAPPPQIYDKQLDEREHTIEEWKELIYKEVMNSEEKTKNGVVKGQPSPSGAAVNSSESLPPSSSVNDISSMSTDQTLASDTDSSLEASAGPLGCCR

Question: How did the Activity [1] turn out when NCCCC[C@H](NC(=O)[C@H](CC(=O)O)NC(=O)[C@H](CC(=O)O)NC(=O)[C@H](CC(=O)O)NC(=O)[C@H](CC(=O)O)NC(=O)[C@H](CC(=O)O)NC(=O)[C@H](CC(=O)O)NC(=O)CCCCCCCCOc1nc2cc(C(=O)O)ccc2c2cnccc12)C(=O)O (X1-DDDDDDK-OH) was run?
Answer: 47%

Question: And the Activity [2]?
Answer: 74%

Question: What about the Activity [3] of the same molecule?
Answer: 22%

Question: What about the Activity [4] of the same molecule?
Answer: 106%

Question: And the Kd ([5]; read-out: Kd)?
Answer: 0.037 nM

Question: What about the Kd ([5]; read-out: pKd (converted)) of the same molecule?
Answer: 0.0316 nM

Question: And the Activity [6]?
Answer: 100%

Question: What about the Activity [7] of the same molecule?
Answer: 91%

Question: And the Activity [8]?
Answer: 89%

Question: What about the Activity [9] of the same molecule?
Answer: 41%

Question: And the Activity [10]?
Answer: 75%

Question: And the Activity [11]?
Answer: 84%

Question: What about the Activity [12] of the same molecule?
Answer: 77%

Question: What about the Activity [13] of the same molecule?
Answer: 86%

Question: What about the Activity [14] of the same molecule?
Answer: 97%

Question: And the Activity [15]?
Answer: 109%

Question: What about the Activity [16] of the same molecule?
Answer: 84%

Question: And the Activity [17]?
Answer: 86%

Question: And the Activity [18]?
Answer: 87%

Question: What about the Activity [19] of the same molecule?
Answer: 48%

Question: And the Activity [20]?
Answer: 79%

Question: What about the Activity [21] of the same molecule?
Answer: 94%

Question: What about the Activity [22] of the same molecule?
Answer: 75%

Question: What about the Activity [23] of the same molecule?
Answer: 84%

Question: What about the Activity [24] of the same molecule?
Answer: 100%
